# Reference: ChEMBL document CHEMBL2406944, “Development of stapled short helical peptides capable of inhibiting vitamin D receptor (VDR)-coactivator interactions” (Bioorg Med Chem Lett, 2013)
# Starred links: 1 amine or outer side, 2 acyl side, 3 side chain; linkers in the order of their positions; H or OH if unused. Positions of bridges follow the written chain, without caps; N, C: chain ends. Non-standard residues stand in square brackets, D forms with d. Residues, ends and D or L forms follow the SMILES beside them. hSer = N[C@@H](CCO)C(=O)O; X1 = C(CC[*:2])C[*:1]; Aib = CC(C)(N)C(=O)O
# Molecular target: T1, Vitamin D3 receptor (Homo sapiens, UniProt P11473)
# T1 sequence (P11473 whole entry): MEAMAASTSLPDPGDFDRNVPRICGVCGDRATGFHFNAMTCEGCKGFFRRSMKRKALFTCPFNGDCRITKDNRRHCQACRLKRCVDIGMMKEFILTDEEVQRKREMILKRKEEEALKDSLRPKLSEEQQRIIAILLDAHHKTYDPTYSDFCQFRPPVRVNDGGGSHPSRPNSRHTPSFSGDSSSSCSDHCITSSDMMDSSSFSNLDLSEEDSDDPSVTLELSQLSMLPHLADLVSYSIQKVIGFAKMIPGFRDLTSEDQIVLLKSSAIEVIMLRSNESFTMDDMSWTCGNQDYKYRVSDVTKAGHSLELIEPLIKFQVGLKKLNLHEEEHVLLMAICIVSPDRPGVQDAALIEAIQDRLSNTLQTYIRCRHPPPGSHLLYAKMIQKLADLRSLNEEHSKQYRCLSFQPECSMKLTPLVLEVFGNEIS
# Experiment: Inhibition of human VDR-coactivator interaction
row,SMILES,IC50 [µM]
1,CC(C)C[C@@H]1NC(=O)[C@H](CC(C)C)NC(=O)C(C)(C)NC(=O)[C@H](NC(=O)[C@H](CC(C)C)NC(=O)[C@@H](N)CC(C)C)COCCCCOC[C@@H](C(=O)O)NC1=O,610
2,CC(C)C[C@@H]1NC(=O)[C@H](CC(C)C)NC(=O)C(C)(C)NC(=O)[C@H](NC(=O)[C@H](CC(C)C)NC(=O)[C@@H](N)CC(C)C)COCCCCOC[C@H](C(=O)O)NC1=O,600
3,CC(C)C[C@@H]1NC(=O)[C@H](CC(C)C)NC(=O)C(C)(C)NC(=O)[C@@H](NC(=O)[C@H](CC(C)C)NC(=O)[C@@H](N)CC(C)C)COCCCCOC[C@@H](C(=O)O)NC1=O,610
4,CC(C)C[C@@H]1NC(=O)[C@H](CC(C)C)NC(=O)C(C)(C)NC(=O)[C@@H](NC(=O)[C@H](CC(C)C)NC(=O)[C@@H](N)CC(C)C)CCOCCCCOC[C@@H](C(=O)O)NC1=O (H-LL[hSer][Aib]LLS-OH; linker 3-7 via X1),520

# Now those with a lower IC50, led by results:
row,IC50 [µM],SMILES
1,430,CC(C)C[C@@H]1NC(=O)[C@H](CC(C)C)NC(=O)C(C)(C)NC(=O)[C@@H](NC(=O)[C@H](CC(C)C)NC(=O)[C@@H](N)CC(C)C)COCCCCOC[C@H](C(=O)O)NC1=O
2,220,CC(C)C[C@@H]1NC(=O)[C@H](CC(C)C)NC(=O)C(C)(C)NC(=O)[C@@H](NC(=O)[C@H](CC(C)C)NC(=O)[C@@H](N)CC(C)C)CCOCCCCOCC[C@@H](C(=O)O)NC1=O (H-LL[hSer][Aib]LL[hSer]-OH; linker 3-7 via X1)
3,3.2,CC(C)C[C@@H]1NC(=O)[C@H](CC(C)C)NC(=O)C(C)(C)NC(=O)[C@@H](NC(=O)[C@H](CC(C)C)NC(=O)[C@@H](N)CC(C)C)CCOCC(O)C(O)COCC[C@@H](C(=O)O)NC1=O (mixture of isomers)
